The results in this text go back to ChEMBL document CHEMBL1136329, “A theoretical investigation on DPPH radical-scavenging mechanism of edaravone” (Bioorg Med Chem Lett, 2003).

A short description of this test: Scavenging activity against DPPH. It counts as functional.

As to `CC1=NN(c2ccccc2)C(=O)C1` [EDARAVONE], the IC50 came out at 29.3 uM l-1.
